Measurements published in patent US11840547B1, “Nano-sized 4-Bromo-2-[(9H-purin-6-ylimino)-methyl]-phenol imine Pd(II) complex for superior pharmaceutical applications” (KING FAISAL UNIVERSITY, priority 2023, dated 2023).
Values after ≈ are worked out from the molar mass of the structure shown. Read-outs that look alike come from different tables or passages of the source.

Columns and labels:
breast cancer cell line [1] = test: Antioxidant activity; format: cell-based; conditions: printed as against a breast cancer cell line
Aspergillus flavus fungi = test: Antifungal activity against Aspergillus flavus (inhibition zone, MIC); format: cell-based; conditions: in vitro
breast cancer cell line [2] = test: In vitro anti-cancer activity against breast cancer cell line; format: cell-based, human
E. coli bacteria = test: Antimicrobial activity against E. coli (inhibition zone, MIC); format: cell-based; conditions: in vitro
[3] = listed as prepared nano complex

`O=C1O[C@H]([C@@H](O)CO)C(O)=C1O` [1-ascorbic acid, reference compound] was tested, and the “IC50 (antioxidant activity)” value (breast cancer cell line [1]) was 45.7 µg/mL (≈ 259 µM).
With `OC(Cn1cncn1)(Cn1cncn1)c1ccc(F)cc1F` [Fluconazol, reference compound] the inhibition zone (Aspergillus flavus fungi) was 24 mm and the MIC (Aspergillus flavus fungi; read-out: MIC) was 2 µg/mL (≈ 6.53 µM).
With `CC[C@]1(O)C[C@@H]2CN(CCc3c([nH]c4ccccc34)[C@@](C(=O)OC)(c3cc4c(cc3OC)N(C)[C@H]3[C@@](O)(C(=O)OC)[C@H](OC(C)=O)[C@]5(CC)C=CCN6CC[C@]43[C@@H]65)C2)C1` [vinblastine, reference compound] the IC50 (breast cancer cell line [2]; Homo sapiens, read-out: IC50 (anticancer activity)) was 4.7 µg/mL (≈ 5.8 µM).
Molecule `CC1COc2c(N3CCN(C)CC3)c(F)cc3c(=O)c(C(=O)O)cn1c23` (stereo not shown) [Ofloxacin, reference compound] has an MIC (E. coli bacteria; Escherichia coli, read-out: MIC) of 2.5 µg/mL (≈ 6.92 µM) and an inhibition zone (E. coli bacteria) of 35 mm.
With “4-Bromo-2-[(9H-purin-6-ylimino)-methyl]-phenol imine Pd(II) complex [prepared complex]” the MIC (Aspergillus flavus fungi) was 1.50 µg/mL, the inhibition zone (Aspergillus flavus fungi) was 30 mm and the MIC (Aspergillus flavus fungi; listed as present complex) was “about 1.50 μg/ml”. For the same molecule, the inhibition zone (Aspergillus flavus fungi; listed as present complex) was “about 30 mm”, the MIC (E. coli bacteria; [3]) was 1.00 µg/mL and the inhibition zone (E. coli bacteria; [3]) was 40 mm. For the same molecule, the MIC (E. coli bacteria; listed as present complex) was “about 1.0 μg/ml”, the inhibition zone (E. coli bacteria; listed as present complex) was “about 40 mm” and the “IC50 (anticancer activity)” value (breast cancer cell line [2]) was 2.2 µg/mL. For the same molecule, the “IC50 (antioxidant activity)” value (breast cancer cell line [1]) was 7.5 µg/mL.
